Test results: paper PMC9666555, “Genuine selective caspase-2 inhibition with new irreversible small peptidomimetics” (Cell Death & Disease, 2022)
Where “and” joins values, the source holds several entries; their conditions need not be identical. Identical values can stand only once. Like-named read-outs stand apart in the source and are kept apart here. Residues, ends and D or L forms follow the SMILES beside them. *: point of attachment. X1 = O=C(O)CC(N*)C(=O)COc1c(F)cccc1F; Quinaldoyl = O=C(c1ccc2ccccc2n1)*; Cbz = O=C(OCc1ccccc1)*; CH2F = FC*

Columns and labels:
recombinant human Casp2 = biological target: T1, recombinant human Casp2 (Homo sapiens, UniProt P42575); assay: Enzyme mechanistic studies (Ki, k3, k3/KI), Caspase-2; assay type: biochemical; conditions: for Ki ratio (Casp3/Casp2): reversible inhibitors
T1 sequence (P42575 170-325 limits assumed): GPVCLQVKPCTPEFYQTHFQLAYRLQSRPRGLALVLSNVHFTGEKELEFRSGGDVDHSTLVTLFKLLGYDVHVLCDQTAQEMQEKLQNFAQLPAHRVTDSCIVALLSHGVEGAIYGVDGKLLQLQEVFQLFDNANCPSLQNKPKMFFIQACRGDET
T1 sequence (P42575 348-452 limits assumed): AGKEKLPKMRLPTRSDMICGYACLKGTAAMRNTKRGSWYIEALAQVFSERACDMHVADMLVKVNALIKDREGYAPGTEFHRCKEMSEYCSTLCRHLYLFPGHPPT
Method: (§1) For reversible inhibitors, the mechanisms of inhibition were determined by varying substrate and inhibitor concentrations and using Lineweaver−Burk representations to determine the inhibition constants Ki of competitive inhibitors (Ki = [E][I]/[EI]). For suicide inhibitors, inactivation can be represented by the minimum kinetic scheme (Eq. 2), where E and I are the free forms of enzyme and inhibitor, E * I a kinetic chimera of the Michaelis complex and E − I the covalent complex (inactivated enzyme).2 E+I⇄KIE*I→k3E−I
(§2) KI and k3 are the kinetic constants characterizing the inactivation process and the k3/KI ratio is an index of the inhibitory potency. The first-order rate constant, k3, and the apparent dissociation constant, KI, were determined for Caspase-2 and -3 using the progress curve method. Briefly, the enzyme activities were measured continuously for 120 min. To determine the kinetic parameters, progress curves were obtained at several inhibition concentrations using fixed substrate concentration. The product released for each inhibitor concentration was plotted versus the time following Eq. 3 where the constant π depended on [I]’, a modified inhibitor concentration due to substrate competition, according to Eq. 4. [I]’ is defined by Eq. 5, where KM was Michaelis constant for the enzymatic hydrolysis of the appropriate fluorogenic substrate. The ratio k3/KI was obtained by fitting the experimental data to the equations (F.U., fluorescence unit):3 F.U.=∫0tvidt+F.U0−vo×e^−π×t/π+F.U.0 4 π=k3×[I]^′/KI+[I]^′ 5 [I]^′=[I]/1+S/KM
Linear and nonlinear regression fits of the experimental data to the equations were performed with KaleidaGraph software. The experimental conditions were [Caspase-2]0 = 0.2 nM, [Ac-VDVAD-AMC]0 = 25 µM and [Caspase-3]0 = 0.1 nM, [Ac-DEVD-AMC]0 = 10 µM; [I]0 = 0–100 µM.

recombinant human Casp3 = biological target: T2, recombinant human Casp3 (Homo sapiens, UniProt P42574); assay: Enzyme mechanistic studies (Ki, k3, k3/KI), Caspase-3; assay type: biochemical
T2 sequence (P42574 29-175 limits assumed): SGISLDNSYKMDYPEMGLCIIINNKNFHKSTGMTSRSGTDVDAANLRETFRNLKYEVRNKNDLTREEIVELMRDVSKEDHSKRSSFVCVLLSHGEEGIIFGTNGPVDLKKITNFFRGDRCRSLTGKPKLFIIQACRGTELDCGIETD
T2 sequence (P42574 176-277 limits assumed): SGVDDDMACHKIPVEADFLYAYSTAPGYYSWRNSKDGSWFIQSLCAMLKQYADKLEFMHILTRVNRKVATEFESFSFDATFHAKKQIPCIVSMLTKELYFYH
Method: as §1, §2
Linear and nonlinear regression fits of the experimental data to the equations were performed with KaleidaGraph software.

HeLa cells = assay: Vincristine-induced HeLa cell death (propidium iodide, flow cytometry); assay type: cell-based, human; conditions: 1 h pretreatment, 20 nM vincristine 44 h; for inhibition of vincristine-induced cell death: inhibitor 30 µM; for effect against vincristine-induced cell death: indicated doses
Method: HeLa cells (obtained from ATCC) were cultured in Dulbecco’s Modified Eagle Medium (DMEM, High Glucose, GlutaMAX™, Pyruvate) supplemented with antibiotics and 10% fetal calf serum (FCS) (Gibco, Life Technologies) and maintained in T75 Flasks at 1 × 10^6 cells per flask. Twenty-four hours before treatments, HeLa cells were transferred to 6-well plates (8 × 10^4 cells/well). The lymphoblastoid cell line Molt4cl8 was a gift from Dr. Bernard Krust (Inserm, University Paris 5) and was cultured in RPMI 1640 Glutamax medium supplemented with Hepes, antibiotics, and 10% FCS. HEK293 cells were obtained from ATCC (CRL-1573) and cultured in DMEM with Glutamax and 25 mM glucose (Life Technologies) supplemented with 10% FCS and antibiotics. For cell death induction, the following agents were added to cell cultures: Vincristine (Sigma) and Panobistat (LBH589; Selleck). Cell death was analyzed using fluorescence microscopy (Axio-observer Z1, Zeiss; equipped with CCD camera CoolsnapHQ2, Ropert Scientific) and cytofluorometry (MACSQuant® VYB; Miltenyi Biotec, Bergisch Gladbach, Germany) after labeling with propidium iodide (1 µg/mL; 10 min; 37 °C; Life Technologies) and Hoechst 33342 (1 µg/mL; 5 min; RT; Sigma).
Fig. 2 q33 and h33 are protective against the cytocidal effect of Vincristine. a Vincristine induces HeLa cell death. Cells were incubated for 44 h at 37 °C with 20 nM Vincristine (VCR), then incubated with propidium iodide at 2 μg/mL for 10 min and analyzed by flow cytometry to quantify plasma membrane permeabilization. Histograms show fluorescence intensity detected by flow cytometry (one representative experiment) in the presence (VCR) or Absence (Co.) of Vincristine. % of propidium iodide-positive cells are indicated for both conditions. b Dose–response of Vincristine-induced cell death. HeLa cells were incubated and treated as in (a) with the indicated doses of Vincristine (VCR) and analyzed by flow cytometry. […] Representative fluorescence microscopy micrographs of cells treated for 44 h with 20 nM vincristine (VCR) or not (Co.) and stained with Hoechst 33342. Vincristine induces progressive nuclear changes with first condensed nuclei (arrows) and then apoptotic bodies (dashed arrow). d Broad-spectrum irreversible caspase inhibitors prevent vincristine-induced cell death. HeLa cells were pretreated for 1 hr with the indicated broad-spectrum irreversible caspases inhibitors (z-VAD(OMe)-fmk at 30 μM, Q-VD-OPh 30 μM, Emricasan 10 μM, or the negative control Q-VE-OPh 30 μM), then treated with vincristine as in panel (a), and analyzed by flow cytometry. Histograms show the mean ± SD of 3 independent experiments (***p value < 0.001). e Effect of the reversible Caspase-2 inhibitors q33 and h33 against vincristine-induced cell death. HeLa cells were pretreated for 1 h with the indicated doses of q33 or h33, then treated with vincristine as in panel a, and analyzed by flow cytometry. Histograms show the mean ± SD of three independent experiments (*p value < 0.1). TEXT PRINTED IN THE PICTURE: (a) VCR: 39,5 % DOUBTS OF THE COPYIST ABOUT THIS PICTURE: Panel a: the picture prints no measure beside "39,5 %" and "4.1%". I assigned 39,5 % to VCR only because it stands by the grey VCR peak. / Panel a: "4.1%" seems to belong to the untreated control (Co.). That is not a substance, so it is left out.
Fig. 5 LJ2 inhibits cell death induced by microtubule destabilization and hydroxamic acid-based deacetylase (HDAC) inhibition. a Effect of the irreversible Caspase-2 inhibitors LJ2 against vincristine-induced cell death. HeLa cells were pretreated for 1 h with the indicated doses of LJ2, Q-VD-OPh, or Q-LETD-OPh, then treated with vincristine (VCR) as in Fig. 2, then incubated with propidium iodide at 2 μg/mL for 10 min and analyzed by flow cytometry. Histogram data are mean ± SD (n = 3, *p value < 0.01). b Effect of Caspases-inhibitors against Panobistat (LBH589)-induced cell death. […]

[1] = biological target: T3, human active recombinant Caspase-3 (Homo sapiens, UniProt P42574); assay: In vitro caspase activity and inhibition assay (IC50), Caspase-3; assay type: biochemical
T3 sequence (P42574 29-175 limits assumed): T2 sequence (P42574 29-175 limits assumed)
T3 sequence (P42574 176-277 limits assumed): T2 sequence (P42574 176-277 limits assumed)
Method: The human active recombinant Caspase-3 (#707-C3) was purchased from R&D Systems (Minneapolis, USA). […] Stock solutions were stored at −80 °C. […] Caspase inhibitors were solubilized in DMSO at 10 mM and stored at −80 °C.
Initial velocity (V0) was determined from the linear portion of the progress curve. The composition of the activity buffer was: 20 mM HEPES, pH 7.4; 0.1% CHAPS, 5 mM DTT, 2 mM EDTA; 800 mM sodium succinate for Caspase-2 (0.2 nM) with 25 µM of Ac-VDVAD-7-amino-3-methylcoumarin (AMC) and 20 mM HEPES, pH 7.4; 0.1% CHAPS, 5 mM DTT, 2 mM EDTA; supplemented with 1 mg/mL of stabilizing agent bovine serum albumin (BSA) for Caspase-3 (0.1 nM) with 10 μM of Ac-DEVD-AMC. Compounds (0.001–100 µM) were tested in duplicate for each inhibitor concentration to detect their inhibitory potential. Enzymes and compounds were incubated for 30 min before initiating enzymatic reaction by adding substrate. Initial rates determined in control experiments (V0) were considered as 100% of the caspase activity; initial rates that were below 100% in the presence of tested compound (Vi) were considered as inhibition. The inhibitory activity of compounds was expressed as IC50 (Inhibitor concentration giving 50% inhibition). The values of IC50 were calculated by fitting the experimental data using Mars data Analysis 2.0 and KaleidaGraph software.1 %Inhibition=1001−Vi/V0=100I0/IC50+I0

[2] = biological target: T4, human active recombinant caspase-2 (Homo sapiens, UniProt P42575); assay: In vitro caspase activity and inhibition assay (IC50), Caspase-2; assay type: biochemical
T4 sequence (P42575 170-325 limits assumed): T1 sequence (P42575 170-325 limits assumed)
T4 sequence (P42575 348-452 limits assumed): T1 sequence (P42575 348-452 limits assumed)
Method: Stock solutions were stored at −80 °C.

[3] = test system: Casp2-S1P-SREBP2 activation pathway in HEK 293 cells; assay: Casp2-dependent S1P cleavage and SREBP2 activation in transfected HEK 293 cells (WB); conditions: 10 µM, 16 h
Method: To test SREBP processing, HEK 293 (ATCC® CRL-1573) cells were plated at a density of 0.5 × 10^5 per well (6-well plates). The next day, 1 μg of each cDNAs were transfected using lipofectamine 3000 (Thermo Fisher Scientific, MA) according to the manufacturer’s instruction. cDNAs used were empty vector (EV), Casp2-HA, PIDD-Flag, RAIDD-His, Myc-S1P, and V5-SREBP2. After 4 h, cells were incubated in DMEM/F12 medium supplemented with indicated Casp2 inhibitors (10 μM) for 16 h. Whole-cell lysates were prepared in lysate buffer (150 mM Tris-HCl, pH 7.4, 10% sodium-deoxycholate, 100 mM NaCl, 100 mM EDTA, 100 mM PMSF, 200 mM NaF, 100 mM Na3VO4, and a mixture of protease inhibitors). […] Equal quantities of proteins were subjected to immunoblot (WB) analysis with anti-Flag (#F7425 Sigma-Aldrich), anti-HA (#1867431, Roche), anti-Casp2 (#ALX-804-356, 11B4, Enzo Life Sciences), anti-V5 monoclonal antibody (#13202, Cell Signaling Technology), anti-Casp3 (#9661, #9662, #9664, Cell Signaling Technologies), and anti-HSP90 (#sc-101494, Santa Cruz Technologies).
HEK 293 cells were transfected with indicated plasmids in order to overexpress SREBP2, S1P, RAIDD, PIDD1, and Casp-2. […] HEK 293 cells were transfected with the indicated plasmids. […] Then, whole cell extracts (WCL) were prepared and subjected to WB analysis to detect Casp2 (through HA tag), RAIDD (through 6HIS tag), and PIDD1, PIDD1-C, PIDD1-CC (through Flag tag).

[4] = test system: Swiss mice hippocampal neurons; assay: Aβ oligomer-induced dendritic spine loss in hippocampal primary cultures; assay type: cell-based, mouse; conditions: 100 nM, 6 h of exposure
Method: For the monoculture model (MBBT4 devices), 20 × 10^3 hippocampal neurons were seeded in each chamber. For the compartmentalized coculture model (neuronal diode in MBBT5 devices), 40 × 10^3 cortical cells and 15 × 10^3 hippocampal cells were seeded in each input chamber and output chamber, respectively. The culture medium was renewed every 5 days. Microfluidic chips were placed in Petri dishes containing 0.1% EDTA (Sigma) and incubated at 37 °C in a 5% CO2 atmosphere. In the neuronal diodes, cortical axons entered the microchannels and reached the hippocampi chamber in around 4–5 days. In both the monoculture and coculture systems, cells were cultured for 3 weeks to allow high dendrites and synapse density and intense electrical firing.
Cells were treated with caspase inhibitors and/or Aβ1–42 at 20 days in vitro. For the hippocampal monocultures, the culture medium was removed and replaced by fresh medium optionally containing 10 nM Aβ1–42 oligomers or monomers, with or without caspase inhibitors. After 6 h, cells were fixed, permeabilized, and subjected to immunolabelling. For cortico-hippocampal compartmentalized cocultures, the medium of the input chamber (cortical) was replaced by fresh medium optionally containing 100 nM Aβ1–42 oligomers or monomers, whereas the medium of the output (hippocampal) chamber was replaced by fresh medium optionally containing, or not, caspases inhibitors. […]
Immunostaining was performed directly in microfluidic chambers as described [38]. […] Images were analyzed using ImageJ software (NIH, Bethesda, MD, USA).
Synaptic disconnection was assessed as described [39] with slight modifications. Briefly, in hippocampal monocultures, synaptic disconnection was assessed through fluorescence microscopy by counting phalloidin clusters affixed to MAP2 and Bassoon. In cortico-hippocampal compartmentalized cocultures, synaptic disconnection was assessed by counting α-Synuclein presynaptic clusters affixed to MAP2-positive hippocampal dendrites. […] The images were similarly processed with ImageJ software before being used for quantification: the brightness/contrast of all control images were optimized manually to eliminate the background and to maximize the signal. The means of the minimum and maximum intensities were then calculated in the control condition and these settings were applied to all images. The brightness/contrast of all images was optimized manually to eliminate the background and maximize the intensity of the signal. α-synuclein/ MAP2 and Phalloidin/MAP2/Bassoon merges were then used for quantification. The number of spines was determined by counting individual clusters along ten dendritic regions (100 µm length each) in three independent experiments for every epitope. Only synapses detected on or near the neurites were included for analysis.

[5] = irreversible inhibitors, progress curve method
[6] = reversible competitive inhibitors, Lineweaver-Burk, read-out: Enzyme assays Casp2 Ki
[7] = reversible competitive inhibitors, Lineweaver-Burk, read-out: Enzyme assays Casp3 Ki (converted)
[8] = 30 min preincubation, 0.1 nM Caspase-3, 10 µM Ac-DEVD-AMC, read-out: Enzyme assays Casp3 IC50 (converted)
[9] = 30 min preincubation, 0.2 nM Caspase-2, 25 µM Ac-VDVAD-AMC, read-out: Enzyme assays Casp2 IC50

CC(C)[C@H](NC(=O)c1ccc2ccccc2n1)C(=O)N[C@@H](CC(=O)O)C(=O)N[C@H](C(=O)N1CC[C@H](CC(C)(C)C)[C@H]1C(=O)NC(CC(=O)O)C(=O)COc1c(F)cccc1F)C(C)C (stereo partly shown) [LJ3b]
k3/Ki ratio against Casp2, times lower than the one of the a isomer (LJ2a or LJ3a) (recombinant human Casp2): more than 2000 times | Casp2 k3/KI (recombinant human Casp2; [5]): 823 M⁻¹ s⁻¹ | Ki (recombinant human Casp2; irreversible inhibitors, progress curve method, read-out: Casp2 KI): 8540 ± 300 nM | Casp3 k3 (recombinant human Casp3; [5]): 0.8 ± 6 × 10^−5 ms^−1 | Casp3 k3/KI (recombinant human Casp3; [5]): 9 M⁻¹ s⁻¹ | Ki (recombinant human Casp3; irreversible inhibitors, progress curve method, read-out: Casp3 KI): 84200 nM

CC(C)C(NC(=O)c1ccc2ccccc2n1)C(=O)NC(CCC(=O)O)C(=O)COc1c(F)cccc1F (stereo not shown) [Q-VE-OPh]
inhibition of vincristine-induced cell death (HeLa cells): not

CC(=O)N[C@H](C(=O)N[C@@H](CC(=O)O)C(=O)N[C@H](C(=O)N1CC[C@@H](OC(C)C)[C@@H]1C(=O)N[C@H]1CC(=O)OC1O)C(C)C)C(C)C (stereo partly shown) [c33, reference compound]
Ki (recombinant human Casp2; [6]): 122 nM | IC50 [1]: 6720 nM | IC50 [2]: 271 nM | Ki (recombinant human Casp3; [7]): 2440 nM

CC(=O)N[C@H](C(=O)N[C@@H](CC(=O)O)C(=O)N[C@H](C(=O)N1CC[C@H](CC(C)(C)C)[C@@H]1C(=O)N[C@H]1CC(=O)OC1O)C(C)C)C(C)C (stereo partly shown) [h33, reference compound]
Ki (recombinant human Casp2; [6]): 10.9 nM | Ki ratio (Casp3/Casp2) (recombinant human Casp2): 597 | effect against vincristine-induced cell death (HeLa cells): showed cytoprotective effect | IC50 [1, 8]: 4570 nM | IC50 [2, 9]: 11 nM | Ki (recombinant human Casp3; [7]): 6510 nM

CC(=O)NC(C(=O)NC(CC(=O)O)C(=O)NC(C(=O)N1CCC(c2ccccc2)C1C(=O)NC1CC(=O)OC1O)C(C)C)C(C)C (stereo not shown) [k33, reference compound]
Ki (recombinant human Casp2; [6]): 90.5 nM | IC50 [1]: 1960 nM | IC50 [2]: 178 nM | Ki (recombinant human Casp3; [7]): 2770 nM

CC(=O)N[C@H](C(=O)N[C@@H](CC(=O)O)C(=O)N[C@H](C(=O)N1CCc2ccc(C)cc2[C@@H]1C(=O)N[C@H]1CC(=O)OC1O)C(C)C)C(C)C (stereo partly shown) [q33, reference compound]
Ki (recombinant human Casp2; [6]): 24 nM | Ki ratio (Casp3/Casp2) (recombinant human Casp2): 94.5 | effect against vincristine-induced cell death (HeLa cells): showed cytoprotective effect | IC50 [1, 8]: 2540 nM | IC50 [2, 9]: 15 nM | Ki (recombinant human Casp3; [7]): 2370 nM

COC(=O)C[C@H](NC(=O)[C@H](C)NC(=O)[C@@H](NC(=O)OCc1ccccc1)C(C)C)C(=O)CF [z-VAD(Ome)-fmk] (Cbz-Val-Ala-Asp(OMe)-CH2F)
inhibition of vincristine-induced cell death (HeLa cells): more than 80%

CC(C)[C@H](NC(=O)c1ccc2ccccc2n1)C(=O)N[C@@H](CC(=O)O)C(=O)N[C@H](C(=O)N[C@@H](C)C(=O)NC(CC(=O)O)C(=O)COc1c(F)cccc1F)C(C)C (stereo partly shown) [Δ2Me-TRP601, Quinolin-2-carbonyl-VDVAD-CH2-O(2,6F2)Ph, reference compound] (Quinaldoyl-VDVA-X1)
S1P cleavage [3]: abolished | SREBP2 activation [3]: abolished | impact on RAIDD, PIDD1, and Casp2 expression [3]: no significant impact | Casp2 k3 (recombinant human Casp2; [5]): 8,08 ms^−1 | Casp2 k3/KI (recombinant human Casp2; [5]): ~ 1,586,020 M^−1 s^−1 and 1 586 020 M^−1 s^−1 | KI (inactivation) (recombinant human Casp2; [5]): 5.49 nM | IC50 [1]: 0.31 ± 0.01 nM | Casp3 k3 (recombinant human Casp3; [5]): 1,85 ms^−1 | Casp3 k3/KI (recombinant human Casp3; [5]): 1 613 405 M^−1 s^−1 | KI (inactivation) (recombinant human Casp3; [5]): 1.17 nM

Aβ1–42 oligomers: oligomers of human β-amyloid1-42 peptide [reference compound]
decrease in spine density [4]: 50%

Q-LETD-OPh
effect against vincristine-induced cell death (HeLa cells): no effect
